{
  "source": "PubChem BioAssay (NCI)",
  "assay_in_all_cases": "NCI anticancer screen, dose series, 48 h",
  "key": {"HCT-116 colon": {"tested_on": "HCT-116 colon"}, "HL-60(TB) leukemia": {"tested_on": "HL-60(TB) leukemia"}, "HS 578T breast": {"tested_on": "HS 578T breast"}, "MDA-MB-231 breast": {"tested_on": "MDA-MB-231 breast"}, "RPMI-8226 leukemia": {"tested_on": "RPMI-8226 leukemia"}, "SF-268 CNS": {"tested_on": "SF-268 CNS"}, "SF-539 CNS": {"tested_on": "SF-539 CNS"}, "SK-OV-3 ovarian": {"tested_on": "SK-OV-3 ovarian"}, "SR leukemia": {"tested_on": "SR leukemia"}, "UACC-257 melanoma": {"tested_on": "UACC-257 melanoma"}},
  "note": "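Cells were grown in 96-well plates and exposed to each compound for 48 hours at five concentrations; endpoints were interpolated linearly between bracketing concentrations, or set to the highest concentration if not reached. GI50 marks 50% less growth. TGI: total growth inhibition.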",
  "data": [
    {"compound": "COc1cc(/C=C2\\CCCC3=C2NC(N)=NC3c2cc(OC)c(OC)c(OC)c2)cc(OC)c1OC", "note": "(stereo not given)", "values": [
      {"measurement": "GI50", "setting": "HCT-116 colon", "value": 0.551, "unit": "µM"},
      {"measurement": "TGI", "setting": "HCT-116 colon", "value": 1.97, "unit": "µM"},
      {"measurement": "GI50", "setting": "HL-60(TB) leukemia", "value": 2.6, "unit": "µM"},
      {"measurement": "TGI", "setting": "HL-60(TB) leukemia", "value": "> 100", "unit": "µM"},
      {"measurement": "GI50", "setting": "HS 578T breast", "value": 0.554, "unit": "µM"},
      {"measurement": "TGI", "setting": "HS 578T breast", "value": 7.62, "unit": "µM"},
      {"measurement": "GI50", "setting": "MDA-MB-231 breast", "value": 3.87, "unit": "µM"},
      {"measurement": "TGI", "setting": "MDA-MB-231 breast", "value": "> 100", "unit": "µM"},
      {"measurement": "GI50", "setting": "RPMI-8226 leukemia", "value": 0.291, "unit": "µM"},
      {"measurement": "TGI", "setting": "RPMI-8226 leukemia", "value": 1.79, "unit": "µM"},
      {"measurement": "GI50", "setting": "SF-268 CNS", "value": 2.42, "unit": "µM"},
      {"measurement": "TGI", "setting": "SF-268 CNS", "value": "> 100", "unit": "µM"},
      {"measurement": "GI50", "setting": "SF-539 CNS", "value": 3.27, "unit": "µM"},
      {"measurement": "TGI", "setting": "SF-539 CNS", "value": "> 100", "unit": "µM"},
      {"measurement": "GI50", "setting": "SK-OV-3 ovarian", "value": 3.43, "unit": "µM"},
      {"measurement": "TGI", "setting": "SK-OV-3 ovarian", "value": "> 100", "unit": "µM"},
      {"measurement": "GI50", "setting": "SR leukemia", "value": 0.51, "unit": "µM"},
      {"measurement": "TGI", "setting": "SR leukemia", "value": 3.74, "unit": "µM"},
      {"measurement": "GI50", "setting": "UACC-257 melanoma", "value": 1.25, "unit": "µM"},
      {"measurement": "TGI", "setting": "UACC-257 melanoma", "value": 4.35, "unit": "µM"}
    ]}
  ]
}
